Source: patent US20090099029A1, “Methods and substrates for conducting assays” (Invitrogen Corporation, priority 2005, published 2009)
Read-outs that look alike come from different tables or passages of the source.

Columns and labels:
kinases of Table 5 [1] = biological target: T1, kinases of Table 5 (Homo sapiens, UniProt Q12866); test: Further analysis of a plurality of inhibitors and a plurality of kinases (Table 5 inhibition results); type: biochemical; design: scale not given here; settings: inhibitor 100 uM; for Inhibition level: kinase MERTK; for Inhibition Results (Level): kinase MERTK (Part II, plate B11, Domain 1)
T1 sequence (Q12866 21-999): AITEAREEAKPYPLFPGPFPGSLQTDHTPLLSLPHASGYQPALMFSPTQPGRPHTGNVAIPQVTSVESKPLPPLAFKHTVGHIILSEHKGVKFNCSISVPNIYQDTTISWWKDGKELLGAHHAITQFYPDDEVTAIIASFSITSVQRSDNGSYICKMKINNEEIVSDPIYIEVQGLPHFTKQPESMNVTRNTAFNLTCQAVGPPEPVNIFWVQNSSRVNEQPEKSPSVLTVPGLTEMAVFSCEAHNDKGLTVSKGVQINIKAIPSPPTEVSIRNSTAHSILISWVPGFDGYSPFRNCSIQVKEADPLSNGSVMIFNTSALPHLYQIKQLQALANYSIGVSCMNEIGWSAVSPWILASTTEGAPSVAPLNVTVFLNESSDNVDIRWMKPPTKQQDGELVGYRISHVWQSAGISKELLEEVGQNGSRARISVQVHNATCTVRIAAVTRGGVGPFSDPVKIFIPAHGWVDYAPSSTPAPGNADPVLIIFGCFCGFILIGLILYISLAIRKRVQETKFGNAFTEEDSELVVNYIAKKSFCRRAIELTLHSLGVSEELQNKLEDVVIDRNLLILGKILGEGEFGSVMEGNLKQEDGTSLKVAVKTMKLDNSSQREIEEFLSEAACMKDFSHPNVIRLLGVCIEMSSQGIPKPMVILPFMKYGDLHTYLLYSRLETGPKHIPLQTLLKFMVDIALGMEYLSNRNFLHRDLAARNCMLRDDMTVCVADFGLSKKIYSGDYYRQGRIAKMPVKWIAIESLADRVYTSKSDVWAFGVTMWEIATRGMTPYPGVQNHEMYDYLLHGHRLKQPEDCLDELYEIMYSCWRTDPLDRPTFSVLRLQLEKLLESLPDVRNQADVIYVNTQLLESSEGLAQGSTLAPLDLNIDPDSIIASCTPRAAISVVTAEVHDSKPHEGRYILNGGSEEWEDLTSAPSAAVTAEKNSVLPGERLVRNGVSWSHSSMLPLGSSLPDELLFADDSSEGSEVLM
Excerpt: (§1) The wash solution is then discarded.

kinases of Table 5 [2] = biological target: kinases of Table 5 (Homo sapiens, UniProt P24723); test: as above; type: biochemical; design: scale not given here; settings: for Inhibition level: kinase PRKCH; for Inhibition Results (Level): kinase PRKCH (Part II, plate B3, Domain 0)
Excerpt: as §1

kinases of Table 5 [3] = biological target: T2, kinases of Table 5 (Homo sapiens, UniProt Q9UHD2); test: as above; type: biochemical; design: scale not given here; settings: kinase TBK1 (Part I, plate G1, Domain 0); inhibitor 100 uM
T2 sequence (Q9UHD2 1-729): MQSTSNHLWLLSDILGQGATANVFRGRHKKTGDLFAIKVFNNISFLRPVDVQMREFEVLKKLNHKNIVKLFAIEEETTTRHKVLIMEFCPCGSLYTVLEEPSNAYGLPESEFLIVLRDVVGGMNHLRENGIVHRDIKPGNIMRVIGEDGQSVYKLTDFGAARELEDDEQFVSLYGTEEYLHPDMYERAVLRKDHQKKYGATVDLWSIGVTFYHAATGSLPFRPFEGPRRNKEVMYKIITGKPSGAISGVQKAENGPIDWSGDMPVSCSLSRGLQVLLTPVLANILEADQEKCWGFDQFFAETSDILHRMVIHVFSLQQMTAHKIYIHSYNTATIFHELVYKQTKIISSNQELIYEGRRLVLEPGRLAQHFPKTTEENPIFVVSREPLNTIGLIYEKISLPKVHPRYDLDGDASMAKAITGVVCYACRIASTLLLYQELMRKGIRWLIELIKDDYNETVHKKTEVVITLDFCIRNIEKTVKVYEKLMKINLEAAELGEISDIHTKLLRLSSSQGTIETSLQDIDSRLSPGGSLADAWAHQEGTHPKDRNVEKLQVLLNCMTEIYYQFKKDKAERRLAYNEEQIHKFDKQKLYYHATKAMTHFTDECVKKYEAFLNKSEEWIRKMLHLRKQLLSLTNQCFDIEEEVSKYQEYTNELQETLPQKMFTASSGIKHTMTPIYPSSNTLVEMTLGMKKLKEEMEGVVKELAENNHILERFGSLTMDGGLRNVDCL
Excerpt: as §1

kinases of Table 5 [4] = biological target: T3, kinases of Table 5 (Homo sapiens, UniProt Q96KB5); test: as above; type: biochemical; design: scale not given here; settings: kinase TOPK (Part I, plate G7, Domain 1)
T3 sequence (Q96KB5 1-322): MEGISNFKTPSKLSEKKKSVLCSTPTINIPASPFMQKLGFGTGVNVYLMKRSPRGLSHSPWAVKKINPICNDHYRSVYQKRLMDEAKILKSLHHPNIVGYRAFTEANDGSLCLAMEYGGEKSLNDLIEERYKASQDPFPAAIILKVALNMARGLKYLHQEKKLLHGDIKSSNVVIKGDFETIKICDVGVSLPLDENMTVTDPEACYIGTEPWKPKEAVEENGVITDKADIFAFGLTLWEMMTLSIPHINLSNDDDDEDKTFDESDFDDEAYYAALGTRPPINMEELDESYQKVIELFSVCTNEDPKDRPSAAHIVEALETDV
Excerpt: as §1

kinases of Table 5 [5] = biological target: kinases of Table 5 (Homo sapiens, UniProt P07948); test: as above; type: biochemical; design: scale not given here
Excerpt: as §1

39 kinases (Table 4) [6] = settings: known general specificities of the inhibitors; cited from earlier work
39 kinases (Table 4) [7] = test: Global specificity profiling experiment, single point inhibition on kinase microarray; type: biochemical; settings: substrates histone, casein, MBP, polyEY, control 2% DMSO
Protocol: as §1
To assess the application of microarray assays for compound profiling, seven known inhibitors (see Table of inhibitors used in global specificity profiling experiment) and one control (2% DMSO) were tested on microarrays deposited with a group of kinases (as well as positive and negative controls). The method of Example I was used. Twelve spots of each kinase or control were deposited on each array, and three arrays were used for each inhibitor. A mixture of generic kinase substrates (histone, casein, MBP, and polyEY) was used in the assay. The average of all signals from the same inhibitor or control experiment was calculated.
. The general specificities observed were consistent with the known general specificities for these inhibitors, which are listed in Table 3.

[8] = kinase LYN (Part I, plate A5, Domain 0), inhibitor 100 uM

Sequence of kinases of Table 5 (Homo sapiens, UniProt P24723) (P24723 whole entry): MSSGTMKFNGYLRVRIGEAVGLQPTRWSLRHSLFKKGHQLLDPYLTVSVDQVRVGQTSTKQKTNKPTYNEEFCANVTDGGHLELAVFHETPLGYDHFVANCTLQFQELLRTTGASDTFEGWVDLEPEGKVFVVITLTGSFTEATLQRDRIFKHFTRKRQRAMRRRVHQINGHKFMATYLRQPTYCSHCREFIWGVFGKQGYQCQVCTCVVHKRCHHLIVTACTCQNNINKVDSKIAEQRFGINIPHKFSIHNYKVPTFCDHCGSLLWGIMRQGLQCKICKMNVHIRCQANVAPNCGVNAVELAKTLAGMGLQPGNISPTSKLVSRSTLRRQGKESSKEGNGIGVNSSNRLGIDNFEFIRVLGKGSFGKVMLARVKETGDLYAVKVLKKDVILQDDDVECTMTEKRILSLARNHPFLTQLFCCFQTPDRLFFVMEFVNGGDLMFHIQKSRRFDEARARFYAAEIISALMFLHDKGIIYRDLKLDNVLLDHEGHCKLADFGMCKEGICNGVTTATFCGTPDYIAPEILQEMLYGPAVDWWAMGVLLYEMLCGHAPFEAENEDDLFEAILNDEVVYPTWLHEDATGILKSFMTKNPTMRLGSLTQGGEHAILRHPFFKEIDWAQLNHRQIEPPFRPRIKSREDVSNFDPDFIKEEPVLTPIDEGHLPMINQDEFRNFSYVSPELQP
Sequence of kinases of Table 5 (Homo sapiens, UniProt P07948) (P07948 whole entry): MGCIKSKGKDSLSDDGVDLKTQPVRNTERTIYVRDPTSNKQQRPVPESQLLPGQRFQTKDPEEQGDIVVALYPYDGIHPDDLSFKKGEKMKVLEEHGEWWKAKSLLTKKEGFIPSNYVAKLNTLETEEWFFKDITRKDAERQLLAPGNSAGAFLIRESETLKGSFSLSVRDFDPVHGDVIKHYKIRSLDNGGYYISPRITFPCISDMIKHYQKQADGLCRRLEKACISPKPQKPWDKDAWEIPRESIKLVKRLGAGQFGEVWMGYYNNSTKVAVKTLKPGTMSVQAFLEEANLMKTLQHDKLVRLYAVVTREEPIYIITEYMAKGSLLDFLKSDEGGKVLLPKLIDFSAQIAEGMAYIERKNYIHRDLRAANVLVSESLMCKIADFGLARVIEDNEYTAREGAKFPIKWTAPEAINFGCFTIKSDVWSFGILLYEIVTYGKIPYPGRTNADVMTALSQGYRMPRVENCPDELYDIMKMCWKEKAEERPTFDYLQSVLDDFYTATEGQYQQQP

Compound: N#C/C(=C/c1ccc(O)c(O)c1)C(=O)NCc1ccccc1 [AG 490]
- Inhibition level (kinases of Table 5 [1]): 2
- Inhibition level (kinases of Table 5 [2]; inhibitor 100 uM): 2
- Inhibition Results (Level) (kinases of Table 5 [3]): 2
- Inhibition Results (Level) (kinases of Table 5 [4]; inhibitor 100 uM): 2
- Inhibition Results (Level) (kinases of Table 5 [5]; [8]): 2
- General Specificity (39 kinases (Table 4) [6]): Tyrosine

Compound: COc1cc2ncnc(Nc3cccc(Cl)c3)c2cc1OC [AG 1478]
- Inhibition level (kinases of Table 5 [1]): 2
- Inhibition level (kinases of Table 5 [2]; inhibitor 100 uM): 0
- Inhibition Results (Level) (kinases of Table 5 [3]): 2
- Inhibition Results (Level) (kinases of Table 5 [4]; inhibitor 100 uM): 1
- Inhibition Results (Level) (kinases of Table 5 [5]; [8]): 2

Compound: O=c1c(-c2ccc(O)cc2)coc2cc(O)cc(O)c12 [Genistein]
- Inhibition level (kinases of Table 5 [1]): 2
- Inhibition level (kinases of Table 5 [2]; concentration not given): 0
- Inhibition level (kinases of Table 5 [2]; inhibitor 100 uM): 2
- Inhibition Results (Level) (kinases of Table 5 [3]): 2
- Inhibition Results (Level) (kinases of Table 5 [4]; inhibitor 100 uM): 2
- Inhibition Results (Level) (kinases of Table 5 [4]; inhibitor <3.7 mM): 0
- Inhibition Results (Level) (kinases of Table 5 [5]; [8]): 2
- Inhibition Results (Level) (kinases of Table 5 [5]; kinase LYN (Part I, plate A5, Domain 0), inhibitor <3.7 mM): 2
- General Specificity (39 kinases (Table 4) [6]): Tyrosine

Compound: O=S(=O)(NCCNC/C=C/c1ccc(Br)cc1)c1cccc2cnccc12 [H-89]
- Inhibition Results (Level) (kinases of Table 5 [1]): 2
- Inhibition Results (Level) (kinases of Table 5 [2]; inhibitor 100 uM): 2
- Inhibition Results (Level) (kinases of Table 5 [3]): 2
- Inhibition Results (Level) (kinases of Table 5 [4]; inhibitor 100 uM): 2
- Inhibition Results (Level) (kinases of Table 5 [5]; [8]): 2
- General Specificity (39 kinases (Table 4) [6]): Serine/threonine

Compound: CC(C)(C)n1nc(-c2ccc(Cl)cc2)c2c(N)ncnc21 [PP2]
- Inhibition level (kinases of Table 5 [1]): 2
- Inhibition level (kinases of Table 5 [2]; inhibitor 100 uM): 2
- Inhibition Results (Level) (kinases of Table 5 [3]): 1
- Inhibition Results (Level) (kinases of Table 5 [4]; inhibitor 100 uM): 2
- Inhibition Results (Level) (kinases of Table 5 [5]; [8]): 2
- General Specificity (39 kinases (Table 4) [6]): Tyrosine
- specificity observed in global profiling (percentage-of-inhibition data) (39 kinases (Table 4) [7]): primarily inhibited tyrosine kinases

Compound: O=c1c(O)c(-c2ccc(O)c(O)c2)oc2cc(O)cc(O)c12 [Quercetin]
- Inhibition Results (Level) (kinases of Table 5 [1]): 1
- Inhibition Results (Level) (kinases of Table 5 [2]; inhibitor 100 uM): 0
- Inhibition Results (Level) (kinases of Table 5 [3]): 0
- Inhibition Results (Level) (kinases of Table 5 [4]; inhibitor 100 uM): 0
- Inhibition Results (Level) (kinases of Table 5 [5]; [8]): 2

Compound: Cn1cc(C2=C(c3cn(CCCSC(=N)N)c4ccccc34)C(=O)NC2=O)c2ccccc21 [Ro-31-8220]
- Inhibition level (kinases of Table 5 [1]): 2
- Inhibition level (kinases of Table 5 [2]; concentration not given): 2
- Inhibition level (kinases of Table 5 [2]; inhibitor 100 uM): 2
- Inhibition Results (Level) (kinases of Table 5 [3]): 2
- Inhibition Results (Level) (kinases of Table 5 [4]; inhibitor 90 uM): 2
- Inhibition Results (Level) (kinases of Table 5 [4]; inhibitor 100 uM): 0
- Inhibition Results (Level) (kinases of Table 5 [5]; kinase LYN (Part I, plate A5, Domain 0), inhibitor 90 uM): 0
- Inhibition Results (Level) (kinases of Table 5 [5]; [8]): 2
- General Specificity (39 kinases (Table 4) [6]): Serine/threonine
- specificity observed in global profiling (percentage-of-inhibition data) (39 kinases (Table 4) [7]): more specifically targeted the serine-threonine kinases

Compound: CC(=O)c1c(O)c(C)c(O)c(Cc2c(O)c3c(c(C(=O)/C=C/c4ccccc4)c2O)OC(C)(C)C=C3)c1O [Rottlerin (Mallotoxin)]
- Inhibition Results (Level) (kinases of Table 5 [1]): 2
- Inhibition Results (Level) (kinases of Table 5 [2]; inhibitor 100 uM): 2
- Inhibition Results (Level) (kinases of Table 5 [3]): 1
- Inhibition Results (Level) (kinases of Table 5 [4]; inhibitor 100 uM): 2
- Inhibition Results (Level) (kinases of Table 5 [5]; [8]): 2

Compound: CN[C@@H]1C[C@H]2O[C@@](C)([C@@H]1OC)n1c3ccccc3c3c4c(c5c6ccccc6n2c5c31)C(=O)NC4 [Staurosporine]
- Inhibition Results (Level) (kinases of Table 5 [4]; inhibitor 21.5 uM): 2
- Inhibition Results (Level) (kinases of Table 5 [5]): 0
- General Specificity (39 kinases (Table 4) [6]): Broad
- specificity observed in global profiling (percentage-of-inhibition data) (39 kinases (Table 4) [7]): broad spectrum of kinases inhibited
